Patent US9115101B2 (Genentech, Inc., priority 2012, dated 2015)

The compounds below were run against T1, RORc ligand binding domain (Homo sapiens, UniProt P51449) (assay: In Vitro RORc Ligand Binding Assay (25-[3H]hydroxycholesterol radioligand filtration)). Conditions: In Vitro RORc Ligand Binding Assay; Table 4; read-out: RORc IC50.
T1 construct: host or cells: E. coli
T1 sequence (P51449 269-508 limits assumed): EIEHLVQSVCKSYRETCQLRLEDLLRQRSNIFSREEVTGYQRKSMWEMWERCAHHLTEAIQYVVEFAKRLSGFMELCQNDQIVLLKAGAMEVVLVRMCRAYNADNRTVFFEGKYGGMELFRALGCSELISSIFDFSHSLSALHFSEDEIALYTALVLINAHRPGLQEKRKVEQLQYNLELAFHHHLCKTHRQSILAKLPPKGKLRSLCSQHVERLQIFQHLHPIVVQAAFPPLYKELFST

SMILES	IC50 [µM]
CC(=O)N1CCN(c2ccc(CN3[C@@H](C)CCC(c4ccccc4)S3(=O)=O)c(F)c2)C[C@@H]1C (stereo partly drawn) [Example 238, 1-{4-[3-Fluoro-4-((3S)-methyl-1,1-dioxo-6-phenyl-[1,2]thiazinan-2-ylmethyl)-phenyl]-2-methyl-piperazin-1-yl}-ethanone]	0.008
C[C@H]1CCC(c2ccccc2)S(=O)(=O)N1Cc1ccc(N[C@H]2C[C@@H](n3cnnc3)C2)cc1F (stereo partly drawn) [Example 241, [3-Fluoro-4-((3S)-methyl-1,1-dioxo-6-phenyl-[1,2]thiazinan-2-ylmethyl)-phenyl]-(3-[1,2,4]triazol-4-yl-cyclobutyl)-amine]	0.085
CC(=O)N1C[C@@H]2CN(c3ccc(CN4[C@@H](C)CCC(c5ccccc5)S4(=O)=O)c(F)c3)C[C@@H]2C1 (stereo partly drawn) [Example 245, 1-{(3aR,6aS)-5-[3-Fluoro-4-((3S)-methyl-1,1-dioxo-6-phenyl-[1,2]thiazinan-2-ylmethyl)-phenyl]-hexahydro-pyrrolo[3,4-c]pyrrol-2-yl}-ethanone]	0.189
COC(=O)[C@H]1CN(c2ccc(CN3[C@@H](C)CCC(c4ccccc4)S3(=O)=O)c(F)c2)CCN1C(C)=O (stereo partly drawn) [Example 260, 1-Acetyl-4-[3-fluoro-4-((3S)-methyl-1,1-dioxo-6-phenyl-[1,2]thiazinan-2-ylmethyl)-phenyl]-piperazine-2-carboxylic acid methyl ester]	0.031
CC(=O)N1CCN(c2ccc(CN3[C@@H](C)CCC(c4ccccc4)S3(=O)=O)c(F)c2)C[C@@H]1C(=O)O (stereo partly drawn) [Example 261, 1-Acetyl-4-[3-fluoro-4-((3S)-methyl-1,1-dioxo-6-phenyl-[1,2]thiazinan-2-ylmethyl)-phenyl]-piperazine-2-carboxylic acid]	0.379
CC(=O)N1CCN(c2ccc(CN3[C@@H](C)CCC(c4ccccc4)S3(=O)=O)c(F)c2)C[C@@H]1CO (stereo partly drawn) [Example 262, 1-{4-[3-Fluoro-4-((3S)-methyl-1,1-dioxo-6-phenyl-[1,2]thiazinan-2-ylmethyl)-phenyl]-2-hydroxymethyl-piperazin-1-yl}-ethanone]	0.082
C[C@H]1CN(c2ccc(CN3[C@@H](C)CCC(c4ccccc4)S3(=O)=O)c(F)c2)CCN1C(=O)CC#N (stereo partly drawn) [Example 263, 3-{4-[3-Fluoro-4-((3S)-methyl-1,1-dioxo-6-phenyl-[1,2]thiazinan-2-ylmethyl)-phenyl]-2-methyl-piperazin-1-yl}-3-oxo-propionitrile]	0.015
CC(=O)N1CCN(c2ccc(CN3[C@@H](C)CCC(c4ccccc4)S3(=O)=O)c(F)c2)C[C@H]1C (stereo partly drawn) [Example 264, 1-{4-[3-Fluoro-4-((3S)-methyl-1,1-dioxo-6-phenyl-[1,2]thiazinan-2-ylmethyl)-phenyl]-2-methyl-piperazin-1-yl}-ethanone]	0.018
C[C@@H]1CC(c2ccccc2)S(=O)(=O)N(Cc2ccc(N3CCC(n4cnnc4)CC3)cc2F)C1 (stereo partly drawn) [Example 265, 2-[2-Fluoro-4-(4-[1,2,4]triazol-4-yl-piperidin-1-yl)-benzyl]-(4R)-methyl-6-phenyl-[1,2]thiazinane 1,1-dioxide]	0.066
C[C@H]1CCC(c2ccccc2)S(=O)(=O)N1Cc1ccc(C(=O)NC2CC(O)C2)cc1 (stereo partly drawn) [Example 268, N-(3-Hydroxy-cyclobutyl)-4-((3S)-methyl-1,1-dioxo-6-phenyl-[1,2]thiazinan-2-ylmethyl)-benzamide]	3.25
C[C@H]1CCC(c2ccccc2)S(=O)(=O)N1Cc1ccc(C(=O)NCC2COC2)cc1 (stereo partly drawn) [Example 269, 4-((3S)-Methyl-1,1-dioxo-6-phenyl-[1,2]thiazinan-2-ylmethyl)-N-oxetan-3-ylmethyl-benzamide]	1.67
C[C@H]1CCC(c2ccccc2)S(=O)(=O)N1Cc1ccc(C(=O)NC2CCCC2O)cc1 (stereo partly drawn) [Example 270, N-(2-Hydroxy-cyclopentyl)-4-((3S)-methyl-1,1-dioxo-6-phenyl-[1,2]thiazinan-2-ylmethyl)-benzamide]	2.44
C[C@H]1CCC(c2ccccc2)S(=O)(=O)N1Cc1ccc(C(=O)NCC2CCOC2)cc1 (stereo partly drawn) [Example 271, 4-((3S)-Methyl-1,1-dioxo-6-phenyl-[1,2]thiazinan-2-ylmethyl)-N-(tetrahydro-furan-3-ylmethyl)-benzamide]	1.69
C[C@H]1CCC(c2ccccc2)S(=O)(=O)N1Cc1ccc(C(=O)NCCCN2CCCC2=O)cc1 (stereo partly drawn) [Example 272, 4-((3S)-Methyl-1,1-dioxo-6-phenyl-[1,2]thiazinan-2-ylmethyl)-N-[3-(2-oxo-pyrrolidin-1-yl)-propyl]-benzamide]	2.89
C[C@H]1CCC(c2ccccc2)S(=O)(=O)N1Cc1ccc(C(=O)NC2CCCC(O)C2)cc1 (stereo partly drawn) [Example 273, N-(3-Hydroxy-cyclohexyl)-4-((3S)-methyl-1,1-dioxo-6-phenyl-[1,2]thiazinan-2-ylmethyl)-benzamide]	5.47
C[C@H]1CCC(c2ccccc2)S(=O)(=O)N1Cc1ccc(C(=O)NC2CCC(O)CC2)cc1 (stereo partly drawn) [Example 274, N-(4-Hydroxy-cyclohexyl)-4-((3S)-methyl-1,1-dioxo-6-phenyl-[1,2]thiazinan-2-ylmethyl)-benzamide]	4.41

SMILES	IC50 [µM]
C[C@H]1CCC(c2ccccc2)S(=O)(=O)N1Cc1ccc(C(=O)NCCN2CCCC2=O)cc1 (stereo partly drawn) [Example 275, 4-((3S)-Methyl-1,1-dioxo-6-phenyl-[1,2]thiazinan-2-ylmethyl)-N-[2-(2-oxo-pyrrolidin-1-yl)-ethyl]-benzamide]	6.05
CCOC(=O)N1CCC(NC(=O)c2ccc(CN3[C@@H](C)CCC(c4ccccc4)S3(=O)=O)cc2)CC1 (stereo partly drawn) [Example 276, 4-[4-((3S)-Methyl-1,1-dioxo-6-phenyl-[1,2]thiazinan-2-ylmethyl)-benzoylamino]-piperidine-1-carboxylic acid ethyl ester]	4.44
C[C@H]1CCC(c2ccccc2)S(=O)(=O)N1Cc1ccc(C(=O)NCCN2CCCCC2=O)cc1 (stereo partly drawn) [Example 277, 4-((3S)-Methyl-1,1-dioxo-6-phenyl-[1,2]thiazinan-2-ylmethyl)-N-[2-(2-oxo-piperidin-1-yl)-ethyl]-benzamide]	5.11
C[C@H]1CCC(c2ccccc2)S(=O)(=O)N1Cc1ccc(C(=O)N2CCC(CO)CC2)cc1 (stereo partly drawn) [Example 278, (4-Hydroxymethyl-piperidin-1-yl)-[4-((3S)-methyl-1,1-dioxo-6-phenyl-[1,2]thiazinan-2-ylmethyl)-phenyl]-methanone]	1.1
C[C@H]1CCC(c2ccccc2)S(=O)(=O)N1Cc1ccc(C(=O)N2CCC(C#N)CC2)cc1 (stereo partly drawn) [Example 279, 1-[4-((3S)-Methyl-1,1-dioxo-6-phenyl-[1,2]thiazinan-2-ylmethyl)-benzoyl]-piperidine-4-carbonitrile]	4.28
C[C@H]1CCC(c2ccccc2)S(=O)(=O)N1Cc1ccc(C(=O)N2CCCCC2CO)cc1 (stereo partly drawn) [Example 280, (2-Hydroxymethyl-piperidin-1-yl)-[4-((3S)-methyl-1,1-dioxo-6-phenyl-[1,2]thiazinan-2-ylmethyl)-phenyl]-methanone]	2.65
C[C@H]1CCC(c2ccccc2)S(=O)(=O)N1Cc1ccc(C(=O)N2CCCC(CO)C2)cc1 (stereo partly drawn) [Example 281, (3-Hydroxymethyl-piperidin-1-yl)-[4-((3S)-methyl-1,1-dioxo-6-phenyl-[1,2]thiazinan-2-ylmethyl)-phenyl]-methanone]	2.04
C[C@H]1CCC(c2ccccc2)S(=O)(=O)N1Cc1ccc(C(=O)N2CCCOCC2)cc1 (stereo partly drawn) [Example 282, [4-((3S)-Methyl-1,1-dioxo-6-phenyl-[1,2]thiazinan-2-ylmethyl)-phenyl]-[1,4]oxazepan-4-yl-methanone]	5.06
C[C@H]1CCC(c2ccccc2)S(=O)(=O)N1Cc1ccc(C(=O)N(C)CC2CCCO2)cc1 (stereo partly drawn) [Example 283, N-Methyl-4-((3S)-methyl-1,1-dioxo-6-phenyl-[1,2]thiazinan-2-ylmethyl)-N-(tetrahydro-furan-2-ylmethyl)-benzamide]	1.31
C[C@H]1CCC(c2ccccc2)S(=O)(=O)N1Cc1ccc(C(=O)N2CCCC(O)CC2)cc1 (stereo partly drawn) [Example 284, (4-Hydroxy-azepan-1-yl)-[4-((3S)-methyl-1,1-dioxo-6-phenyl-[1,2]thiazinan-2-ylmethyl)-phenyl]-methanone]	1.43
CC(=O)N1CCCN(C(=O)c2ccc(CN3[C@@H](C)CCC(c4ccccc4)S3(=O)=O)cc2)CC1 (stereo partly drawn) [Example 285, 1-{4-[4-((3S)-Methyl-1,1-dioxo-6-phenyl-[1,2]thiazinan-2-ylmethyl)-benzoyl]-[1,4]diazepan-1-yl}-ethanone]	4
C[C@H]1CCC(c2ccccc2)S(=O)(=O)N1Cc1ccc(C(=O)N2CCN(S(=O)(=O)N(C)C)CC2)cc1 (stereo partly drawn) [Example 286, 4-[4-((3S)-Methyl-1,1-dioxo-6-phenyl-[1,2]thiazinan-2-ylmethyl)-benzoyl]-piperazine-1-sulfonic acid dimethylamide]	7.42
C[C@H]1CCC(c2ccccc2)S(=O)(=O)N1Cc1ccc(C(=O)N2CCN(S(C)(=O)=O)CC2)cc1 (stereo partly drawn) [Example 287, (4-Methanesulfonyl-piperazin-1-yl)-[4-((3S)-methyl-1,1-dioxo-6-phenyl-[1,2]thiazinan-2-ylmethyl)-phenyl]-methanone]	0.203
C[C@H]1CCC(c2ccccc2)S(=O)(=O)N1Cc1ccc(C(=O)N2CCN(C(=O)C3CC3)CC2)cc1 (stereo partly drawn) [Example 288, (4-Cyclopropane carbonyl-piperazin-1-yl)-[4-((3S)-methyl-1,1-dioxo-6-phenyl-[1,2]thiazinan-2-ylmethyl)-phenyl]-methanone]	2.67
C[C@H]1CCC(c2ccccc2)S(=O)(=O)N1Cc1ccc(C(=O)N(C)C2CCS(=O)(=O)C2)cc1 (stereo partly drawn) [Example 289, N-(1,1-Dioxo-tetrahydro-thiophen-3-yl)-N-methyl-4-((3S)-methyl-1,1-dioxo-6-phenyl-[1,2]thiazinan-2-ylmethyl)-benzamide]	1.74
